Assay results as given in ChEMBL document CHEMBL1154825, “Schweinfurthins I and J from Macaranga schweinfurthii” (2010).

What was measured:
Type in all cases: functional
[1] = tested on: LOX IMVI; test: Growth inhibition of human LOXIMVI cells; settings: for CC50: read-out: pLC50 (the source's name) (converted); for TGI: read-out: pTGI (converted)
[2] = tested on: MDA-MB-435; test: Growth inhibition of human MDA-MB-435 cells; settings: for CC50: read-out: pLC50 (the source's name) (converted); for TGI: read-out: pTGI (converted)
[3] = tested on: NCI/ADR-RES; test: Growth inhibition of human NCI/ADR-RES cells; settings: for CC50: read-out: pLC50 (the source's name) (converted); for TGI: read-out: pTGI (converted)
[4] = tested on: A498; test: Growth inhibition of human A498 cells; settings: for TGI: read-out: pTGI (converted)
[5] = tested on: CAKI-1; test: Growth inhibition of human Caki1 cells; settings: for CC50: read-out: pLC50 (the source's name) (converted); for TGI: read-out: pTGI (converted)
[6] = tested on: SN12C; test: Growth inhibition of human SN12C cells; settings: for CC50: read-out: pLC50 (the source's name) (converted); for TGI: read-out: pTGI (converted)
[7] = tested on: TK-10; test: Growth inhibition of human TK10 cells; settings: for TGI: read-out: pTGI (converted)
[8] = tested on: T47D; test: Growth inhibition of human T47D cells; settings: for TGI: read-out: pTGI (converted)
[9] = tested on: HL-60(TB); test: Growth inhibition of human HL-60(TB) cells; settings: for CC50: read-out: pLC50 (the source's name) (converted); for TGI: read-out: pTGI (converted)
[10] = tested on: RPMI-8226; test: Growth inhibition of human RPMI8226 cells; settings: for TGI: read-out: pTGI (converted)
[11] = tested on: HOP-92; test: Growth inhibition of human HOP92 cells; settings: for CC50: read-out: pLC50 (the source's name) (converted); for TGI: read-out: pTGI (converted)
[12] = tested on: NCI-H460; test: Growth inhibition of human NCI-H460 cells; settings: for TGI: read-out: pTGI (converted)
[13] = tested on: NCI-H522; test: Growth inhibition of human NCI-H522 cells; settings: for TGI: read-out: pTGI (converted)
[14] = tested on: HT-29; test: Growth inhibition of human HT-29 cells; settings: for TGI: read-out: pTGI (converted)
[15] = tested on: SW-620; test: Growth inhibition of human SW620 cells; settings: for TGI: read-out: pTGI (converted)
[16] = tested on: SF-539; test: Growth inhibition of human SF539 cells; settings: for TGI: read-out: pTGI (converted)
[17] = tested on: SNB-75; test: Growth inhibition of human SNB75 cells; settings: for TGI: read-out: pTGI (converted)

## CC(C)=CCC/C(C)=C/Cc1cc(/C=C/c2cc(O)cc(O)c2)ccc1O [SCHWEINFURTHIN I]
[1]
  GI50: 7.24 µM
  CC50: 50.1 µM
  TGI: 20.9 µM
[2]
  GI50: 7.24 µM
  CC50: 53.7 µM
  TGI: 21.9 µM
[3]
  GI50: 9.33 µM
  CC50: 58.9 µM
  TGI: 24 µM
[4]
  GI50: 5.01 µM
  LC50: 47.9 µM
  TGI: 20.4 µM
[5]
  GI50: 5.62 µM
  CC50: 43.7 µM
  TGI: 18.6 µM
[6]
  GI50: 13.5 µM
  CC50: 61.7 µM
  TGI: 28.8 µM
[7]
  GI50: 14.8 µM
  LC50: 56.2 µM
  TGI: 28.8 µM
[8]
  GI50: 10.2 µM
  LC50: 81.3 µM
  TGI: 28.8 µM
[9]
  GI50: 5.37 µM
  CC50: 77.6 µM
  TGI: 23.4 µM
[10]
  GI50: 3.98 µM
  LC50: 91.2 µM
  TGI: 19.1 µM
[11]
  GI50: 12.9 µM
  CC50: 77.6 µM
  TGI: 31.6 µM
[12]
  GI50: 10.2 µM
  LC50: 85.1 µM
  TGI: 29.5 µM
[13]
  GI50: 11.2 µM
  LC50: 72.4 µM
  TGI: 28.2 µM
[14]
  GI50: 12.6 µM
  LC50: 69.2 µM
  TGI: 29.5 µM
[15]
  GI50: 15.8 µM
  LC50: > 100 µM
  TGI: 43.7 µM
[16]
  GI50: 5.13 µM
  LC50: 47.9 µM
  TGI: 17.8 µM
[17]
  GI50: 11.2 µM
  LC50: 52.5 µM
  TGI: 24.5 µM

## CC(C)=CCC/C(C)=C/CC/C(C)=C/Cc1c(O)cc(/C=C/c2ccc(O)cc2)cc1O [SCHWEINFURTHIN J]
[1]
  GI50: 1.7 µM
  CC50: 5.89 µM
  TGI: 3.16 µM
[2]
  GI50: 3.09 µM
  CC50: 46.8 µM
  TGI: 10.5 µM
[3]
  GI50: 3.16 µM
  CC50: 38.9 µM
  TGI: 9.77 µM
[4]
  GI50: 2.82 µM
  LC50: 45.7 µM
  TGI: 16.6 µM
[5]
  GI50: 1.82 µM
  CC50: 25.1 µM
  TGI: 5.89 µM
[6]
  GI50: 1.95 µM
  CC50: 9.77 µM
  TGI: 4.37 µM
[7]
  GI50: 2.63 µM
  LC50: 31.6 µM
  TGI: 9.33 µM
[8]
  GI50: 2.63 µM
  LC50: 52.5 µM
  TGI: 13.2 µM
[9]
  GI50: 2.57 µM
  CC50: > 100 µM
  TGI: 18.6 µM
[10]
  GI50: 3.16 µM
  LC50: > 100 µM
  TGI: 14.8 µM
[11]
  GI50: 2.29 µM
  CC50: 34.7 µM
  TGI: 8.32 µM
[12]
  GI50: 3.24 µM
  LC50: 70.8 µM
  TGI: 12 µM
[13]
  GI50: 1.82 µM
  LC50: 13.2 µM
  TGI: 4.47 µM
[14]
  GI50: 3.98 µM
  LC50: 49 µM
  TGI: 15.8 µM
[15]
  GI50: 3.16 µM
  LC50: 66.1 µM
  TGI: 12 µM
[16]
  GI50: 2.51 µM
  LC50: 18.6 µM
  TGI: 5.62 µM
[17]
  GI50: 8.91 µM
  LC50: 46.8 µM
  TGI: 21.4 µM
